Tests used:
Type in all cases: cell-based
UACC-62 = experiment: NCI-60 cell line panel: UACC-62; settings: Melanoma
Description: (§1) It was carried out at the NCI, Bethesda, MD, USA, utilizing their standard protocol.

SNB-75 = experiment: NCI-60 cell line panel: SNB-75; set-up: TGI: unit not given here; settings: CNS Cancer
Description: as §1

CAKI-1 = experiment: NCI-60 cell line panel: CAKI-1; set-up: TGI: unit not given here; settings: Renal Cancer
Description: as §1

HCT-116 = experiment: NCI-60 cell line panel: HCT-116; settings: Colon Cancer
Description: as §1

SK-MEL-2 = experiment: NCI-60 cell line panel: SK-MEL-2; set-up: TGI: unit not given here; settings: Melanoma
Description: as §1

786-0 = experiment: NCI-60 cell line panel: 786-0; settings: Renal Cancer
Description: as §1

MDA-MB-231/ATCC = experiment: NCI-60 cell line panel: MDA-MB-231/ATCC; settings: Breast Cancer
Description: as §1

SK-MEL-28 = experiment: NCI-60 cell line panel: SK-MEL-28; settings: Melanoma
Description: as §1

ACHN = experiment: NCI-60 cell line panel: ACHN; settings: Renal Cancer
Description: as §1

COLO 205 = experiment: NCI-60 cell line panel: COLO 205; set-up: TGI: unit not given here; settings: Colon Cancer
Description: as §1

OVCAR-3 = experiment: NCI-60 cell line panel: OVCAR-3; settings: Ovarian Cancer
Description: as §1

SF-539 = experiment: NCI-60 cell line panel: SF-539; settings: CNS Cancer
Description: as §1

OVCAR-4 = experiment: NCI-60 cell line panel: OVCAR-4; settings: Ovarian Cancer
Description: as §1

NCI-H522 = experiment: NCI-60 cell line panel: NCI-H522; set-up: TGI: unit not given here; settings: Non-Small Cell Lung Cancer
Description: as §1

MALME-3M = experiment: NCI-60 cell line panel: MALME-3M; settings: Melanoma
Description: as §1

SW-620 = experiment: NCI-60 cell line panel: SW-620; settings: Colon Cancer
Description: as §1

HS 578T = experiment: NCI-60 cell line panel: HS 578T
Description: as §1

NCI-H460 = experiment: NCI-60 cell line panel: NCI-H460; settings: Non-Small Cell Lung Cancer
Description: as §1

EKVX = experiment: NCI-60 cell line panel: EKVX; settings: Non-Small Cell Lung Cancer
Description: as §1

UACC-257 = experiment: NCI-60 cell line panel: UACC-257; settings: Melanoma
Description: as §1

SF-295 = experiment: NCI-60 cell line panel: SF-295; settings: CNS Cancer
Description: as §1

IGROV1 = experiment: NCI-60 cell line panel: IGROV1
Description: as §1

HOP-62 = experiment: NCI-60 cell line panel: HOP-62; settings: Non-Small Cell Lung Cancer
Description: as §1

HT29 = experiment: NCI-60 cell line panel: HT29
Description: as §1

TK-10 = experiment: NCI-60 cell line panel: TK-10; settings: Renal Cancer
Description: as §1

SN12C = experiment: NCI-60 cell line panel: SN12C; settings: Renal Cancer
Description: as §1

K-562 = experiment: NCI-60 cell line panel: K-562; set-up: TGI: unit not given here
Description: as §1

BT-549 = experiment: NCI-60 cell line panel: BT-549; settings: Breast Cancer
Description: as §1

U251 = experiment: NCI-60 cell line panel: U251; set-up: TGI: unit not given here
Description: as §1

NCI/ADR-RES = experiment: NCI-60 cell line panel: NCI/ADR-RES; set-up: TGI: unit not given here; settings: Ovarian Cancer
Description: as §1

SNB-19 = experiment: NCI-60 cell line panel: SNB-19; settings: CNS Cancer
Description: as §1

HCC-2998 = experiment: NCI-60 cell line panel: HCC-2998; settings: Colon Cancer
Description: as §1

MCF7 = experiment: NCI-60 cell line panel: MCF7; settings: Breast Cancer
Description: as §1

[1] = total growth inhibition, in µM (unit assumed)

CCN1CCN(c2ccc(NC(=O)Nc3ccc(-c4cc(C(=O)NC(C)C)c5ncccc5n4)cc3)cc2C(F)(F)F)CC1 [Compound 13f, 2-(4-(3-(4-(4-Ethylpiperazin-1-yl)-3-(trifluoromethyl)phenyl)ureido)phenyl)-N-isopropyl-1,5-naphthyridine-4-carboxamide] was tested. Which IC50 (UACC-62; Homo sapiens) did it give?
The IC50 was 3990 nM.

What about the TGI (UACC-62; total growth inhibition) of the same compound?
Its TGI is 8280 nM.

What about the TGI (SNB-75; total growth inhibition) of the same compound?
The TGI was 5.14.

What about the IC50 (SNB-75; Homo sapiens) of the same compound?
The IC50 was 980 nM.

And the IC50 (CAKI-1; Homo sapiens)?
Its IC50 is 800 nM.

And the TGI (CAKI-1; total growth inhibition)?
The TGI was 2.08.

And the TGI (HCT-116; total growth inhibition)?
Its TGI is 1300 nM.

What about the IC50 (HCT-116; Homo sapiens) of the same compound?
Its IC50 is 640 nM.

What about the IC50 (SK-MEL-2; Homo sapiens) of the same compound?
The IC50 was 4820 nM.

What about the TGI (SK-MEL-2; total growth inhibition) of the same compound?
The TGI was 9.89.

And the IC50 (786-0; Homo sapiens)?
The IC50 was 500 nM.

And the TGI (786-0; total growth inhibition)?
Its TGI is 1030 nM.

And the TGI (MDA-MB-231/ATCC; total growth inhibition)?
The TGI was 1180 nM.

And the IC50 (MDA-MB-231/ATCC; Homo sapiens)?
Its IC50 is 610 nM.

And the IC50 (SK-MEL-28; Homo sapiens)?
The IC50 was 750 nM.

And the TGI (SK-MEL-28; total growth inhibition)?
The TGI was 1850 nM.

What about the IC50 (ACHN; Homo sapiens) of the same compound?
Its IC50 is 1020 nM.

And the TGI (ACHN; total growth inhibition)?
Its TGI is 3470 nM.

And the TGI (COLO 205; total growth inhibition)?
Its TGI is 2.71.

What about the IC50 (COLO 205; Homo sapiens) of the same compound?
Its IC50 is 930 nM.

And the IC50 (OVCAR-3; Homo sapiens)?
Its IC50 is 640 nM.

And the TGI (OVCAR-3; total growth inhibition)?
Its TGI is 1360 nM.

And the TGI (SF-539; total growth inhibition)?
The TGI was 1020 nM.

And the IC50 (SF-539; Homo sapiens)?
The IC50 was 530 nM.

What about the IC50 (OVCAR-4; Homo sapiens) of the same compound?
Its IC50 is 880 nM.

What about the TGI (OVCAR-4; [1]) of the same compound?
The TGI was 2.45.

What about the IC50 (NCI-H522; Homo sapiens) of the same compound?
The IC50 was 3520 nM.

What about the TGI (NCI-H522; total growth inhibition) of the same compound?
Its TGI is 8.43.

What about the IC50 (MALME-3M; Homo sapiens) of the same compound?
The IC50 was 580 nM.

And the TGI (MALME-3M; [1])?
The TGI was 1.05.

And the TGI (SW-620; total growth inhibition)?
Its TGI is 1260 nM.

And the IC50 (SW-620; Homo sapiens)?
The IC50 was 640 nM.

What about the TGI (HS 578T; Breast Cancer, HS 578T, total growth inhibition) of the same compound?
The TGI was 3450 nM.

What about the IC50 (HS 578T; Homo sapiens, Hs-578T) of the same compound?
Its IC50 is 880 nM.

And the IC50 (NCI-H460; Homo sapiens)?
Its IC50 is 620 nM.

And the TGI (NCI-H460; total growth inhibition)?
The TGI was 1180 nM.

What about the IC50 (EKVX; Homo sapiens) of the same compound?
Its IC50 is 1610 nM.

What about the TGI (EKVX; [1]) of the same compound?
Its TGI is 5.82.

What about the IC50 (UACC-257; Homo sapiens) of the same compound?
Its IC50 is 3450 nM.

What about the TGI (UACC-257; total growth inhibition) of the same compound?
The TGI was 8110 nM.

And the TGI (SF-295; total growth inhibition, unit assumed)?
The TGI was 1140 nM.

And the IC50 (SF-295; Homo sapiens)?
The IC50 was 580 nM.

And the IC50 (IGROV1; Homo sapiens, IGROV-1, Ovarian Cancer)?
Its IC50 is 1420 nM.

And the TGI (IGROV1; Ovarian Cancer, total growth inhibition)?
The TGI was 5110 nM.

And the IC50 (HOP-62; Homo sapiens)?
The IC50 was 3830 nM.

What about the TGI (HOP-62; total growth inhibition) of the same compound?
Its TGI is 8890 nM.

And the TGI (HT29; Colon Cancer, total growth inhibition)?
Its TGI is 1320 nM.

And the IC50 (HT29; Homo sapiens, HT-29, Colon Cancer)?
The IC50 was 670 nM.

What about the IC50 (TK-10; Homo sapiens) of the same compound?
Its IC50 is 1350 nM.

What about the TGI (TK-10; total growth inhibition) of the same compound?
The TGI was 4870 nM.

And the IC50 (SN12C; Homo sapiens)?
Its IC50 is 670 nM.

And the TGI (SN12C; total growth inhibition)?
Its TGI is 1380 nM.

And the IC50 (K-562; Homo sapiens, K562, Leukemia)?
The IC50 was 1000 nM.

And the TGI (K-562; Leukemia, total growth inhibition)?
The TGI was over 34.5.

What about the TGI (BT-549; total growth inhibition) of the same compound?
The TGI was 9570 nM.

What about the IC50 (BT-549; Homo sapiens) of the same compound?
The IC50 was 4830 nM.

And the TGI (U251; CNS Cancer, total growth inhibition)?
The TGI was 4.82.

What about the IC50 (U251; Homo sapiens, U-251, CNS Cancer) of the same compound?
The IC50 was 1240 nM.

And the IC50 (NCI/ADR-RES; Homo sapiens)?
The IC50 was 3660 nM.

And the TGI (NCI/ADR-RES; total growth inhibition)?
Its TGI is 10.00.

And the TGI (SNB-19; total growth inhibition)?
Its TGI is 9120 nM.

And the IC50 (SNB-19; Homo sapiens)?
Its IC50 is 4240 nM.

And the TGI (HCC-2998; total growth inhibition)?
The TGI was 5090 nM.

What about the IC50 (HCC-2998; Homo sapiens) of the same compound?
The IC50 was 1440 nM.

What about the TGI (MCF7; total growth inhibition) of the same compound?
Its TGI is 1500 nM.

What about the IC50 (MCF7; Homo sapiens) of the same compound?
The IC50 was 630 nM.

From patent publication US20240308996A1, “PYRIDOPYRIDINES AND DERIVATIVES THEREOF AS SELECTIVE KINASE INHIBITORS” (University of Sharjah, priority 2023, published 2024)
